The record followed here is patent publication US10392389B2, “Heterocyclic compounds for the inhibition of PASK” (BioEnergenix, LLC, priority 2012, dated 2019).

One assay has as its target T1, PASK (UniProt #Q96RG2; human recombinant N-terminal GST tagged construct, residues 879-1323) (Homo sapiens, UniProt Q96RG2).
T1 construct: N-terminal GST tagged construct, residues 879-1323; GST (N); host or cells: insect cells
Put plainly: PASK ATP Radiochemical Assay. The format is biochemical. Particulars: 33P-ATP, Myelin Basic Protein substrate, read-out: IC50 Kinase Domain. The method, then:
Biochemical Assay for hPASK Activity
PASK ATP Radiochemical Assay
(§1) Purified PASK (UniProt #Q96RG2; human recombinant N-terminal GST tagged construct, residues 879-1323) from insect cells (final concentration 5 nM) is added to freshly prepared Base Reaction Buffer containing 20 mM HEPES (pH 7.5), 10 mM MgCl2, 1 mM EGTA, 0.02% Brij35, 0.02 mg/ml BSA, 0.1 mM Na3VO4, 2 mM DTT, 1% DMSO and Myelin Basic Protein (20 μM final). Test compounds in DMSO are then added and the mixture, followed by delivery of ^33P-ATP (specific activity 0.01 μCi/μl final) to initiate the reaction. The kinase reaction is incubated for 120 min at room temperature. The entire reaction mixture is washed through onto a P81 Phosphocellulose paper and washed three times for 10 minutes in 75 mM phosphoric acid and once in methanol prior to drying and scintillation counting.

The target of another assay is T2, PASK (Invitrogen) (Homo sapiens, UniProt Q96RG2).
T2 construct: IC50 Kinase Domain; purchased Invitrogen
Put plainly: PAS Kinase FRET Assay. The format is biochemical. Particulars: PAS kinase TR-FRET assay (665 nm/615 nm); read-out: IC50 Kinase Domain. Put shortly: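 PASK phosphorylates a ULight-peptide with ATP in 50 mM HEPES, 10 mM MgCl2, 1 mM EGTA, 0.01% Tween-20, 2 mM DTT for 2 h at 25° C in the dark. Compounds are added as 4× serial dilutions (top 12×10^−5 M at 4×). After stopping, an Eu anti-phospho-substrate antibody is added for 1 h and TR-FRET is read at 665/615 nm.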
A general note: In TR-FRET formats the signal depends on donor and acceptor labels being close together.

For assay [1], the target named is T3, CK2a2 (NP_001887; human full-length protein, GST tagged) (Homo sapiens, UniProt P19784).
T3 construct: human full-length protein, GST tagged; GST; host or cells: insect cells
Kind of assay: Biochemical Assay for CK2 Activity. Particulars: 33P-ATP radiochemical assay, CK2 sub [RRRDDDSDDD]. The method, then: Biochemical Assay for CK2 Activity
as §1, with “Purified CK2a2 (NP_001887;” for “Purified PASK (UniProt #Q96RG2;”, “human full-length protein,” for “human recombinant N-terminal”, “GST tagged)” for “GST tagged construct, residues 879-1323)”, “concentration 1.2” for “concentration 5”, “mM Hepes” for “mM HEPES”, “and CK2 sub [RRRDDDSDDD]” for “and Myelin Basic Protein”

In assay [2] the target is T4, PIM1 (NP_002639; human full-length protein, 6×His tagged) (Homo sapiens, UniProt P11309).
T4 construct: human full-length protein, 6×His tagged; 6xHis; host or cells: insect cells
Put plainly: Biochemical Assay for PIM1 Activity. Particulars: 33P-ATP radiochemical assay, S6K/Rsk2 peptide 2 substrate. As for the experimental part: Biochemical Assay for PIM1 Activity
as §1, with “Purified PIM1 (NP_002639;” for “Purified PASK (UniProt #Q96RG2;”, “human full-length protein, 6×His tagged)” for “human recombinant N-terminal GST tagged construct, residues 879-1323)”, “concentration 1.0” for “concentration 5”, “mM Hepes” for “mM HEPES”, “and substrate S6K/Rsk2 peptide 2 [KKRNRTLTK]” for “and Myelin Basic Protein”, “activity 10” for “activity 0.01”

T2 sequence (Q96RG2 999-1251 limits assumed): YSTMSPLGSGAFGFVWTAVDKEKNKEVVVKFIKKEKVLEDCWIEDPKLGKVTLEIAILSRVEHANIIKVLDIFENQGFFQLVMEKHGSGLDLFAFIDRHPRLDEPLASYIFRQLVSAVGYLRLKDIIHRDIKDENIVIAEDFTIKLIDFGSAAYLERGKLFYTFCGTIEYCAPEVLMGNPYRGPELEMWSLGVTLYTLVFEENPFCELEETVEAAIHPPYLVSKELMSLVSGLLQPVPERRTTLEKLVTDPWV
T3 sequence (P19784 whole entry): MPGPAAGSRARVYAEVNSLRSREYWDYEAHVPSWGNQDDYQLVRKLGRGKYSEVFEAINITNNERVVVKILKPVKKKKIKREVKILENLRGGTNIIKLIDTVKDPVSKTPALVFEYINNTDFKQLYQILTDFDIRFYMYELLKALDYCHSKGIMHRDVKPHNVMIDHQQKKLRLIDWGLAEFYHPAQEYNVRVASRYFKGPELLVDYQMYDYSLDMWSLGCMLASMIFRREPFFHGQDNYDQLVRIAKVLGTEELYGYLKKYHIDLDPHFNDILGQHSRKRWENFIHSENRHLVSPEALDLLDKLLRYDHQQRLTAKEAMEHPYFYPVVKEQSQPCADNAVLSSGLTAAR
T4 sequence (P11309 whole entry): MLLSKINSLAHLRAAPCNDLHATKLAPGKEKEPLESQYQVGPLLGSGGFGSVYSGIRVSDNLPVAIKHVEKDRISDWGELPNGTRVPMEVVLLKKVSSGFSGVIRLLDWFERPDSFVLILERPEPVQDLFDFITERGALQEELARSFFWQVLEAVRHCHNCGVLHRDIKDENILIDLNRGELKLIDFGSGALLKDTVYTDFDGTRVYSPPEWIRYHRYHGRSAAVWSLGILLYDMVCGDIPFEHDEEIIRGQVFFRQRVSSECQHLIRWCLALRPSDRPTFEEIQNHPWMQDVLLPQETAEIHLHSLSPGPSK
T1 sequence (Q96RG2 879-1323, stated change not applied): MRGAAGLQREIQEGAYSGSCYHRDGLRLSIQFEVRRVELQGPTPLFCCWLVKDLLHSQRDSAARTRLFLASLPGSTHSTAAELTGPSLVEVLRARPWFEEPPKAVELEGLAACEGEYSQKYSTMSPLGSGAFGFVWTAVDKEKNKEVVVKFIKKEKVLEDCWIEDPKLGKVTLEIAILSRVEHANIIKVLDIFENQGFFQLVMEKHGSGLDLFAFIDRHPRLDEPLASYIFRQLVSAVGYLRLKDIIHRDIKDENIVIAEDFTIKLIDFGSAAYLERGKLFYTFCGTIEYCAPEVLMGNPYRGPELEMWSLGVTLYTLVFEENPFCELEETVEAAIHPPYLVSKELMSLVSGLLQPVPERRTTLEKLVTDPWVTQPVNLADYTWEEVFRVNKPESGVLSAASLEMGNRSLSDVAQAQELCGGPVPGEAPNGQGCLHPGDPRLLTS

As a reminder, the IC50 is the point on the concentration scale where inhibition reaches its midpoint. As to `CCOc1cc(-c2cc(=O)n3ncc(-c4nc(C)co4)c3[nH]2)ccc1Cl` [Example 21, 5-(4-chloro-3-ethoxyphenyl)-3-(4-methyl-1,3-oxazol-2-yl)-4H,7H-pyrazolo[1,5-a]pyrimidin-7-one], the IC50 at PASK was at most 10 µM; on PASK (Invitrogen), at most 10 µM; in assay [1], over 10 µM; in assay [2], at most 10 µM.

With `CCn1nccc1-c1cnn2c(=O)cc(-c3ccc4c(cnn4CC)c3)[nH]c12` [Example 67, 5-(1-ethyl-1H-indazol-5-yl)-3-(1-ethyl-1H-pyrazol-5-yl)pyrazolo[1,5-a]pyrimidin-7(4H)-one], the IC50 (at PASK; on PASK (Invitrogen); in assay [1]; in assay [2]) was at most 10 µM throughout.

In the case of `Cc1noc(-c2cnn3c(=O)cc(-c4ccc(Cl)c(Cl)c4)[nH]c23)n1` [Example 100, 5-(3,4-dichlorophenyl)-3-(3-methyl-1,2,4-oxadiazol-5-yl)-4H,7H-pyrazolo[1,5-a]pyrimidin-7-one], the IC50 (at PASK; on PASK (Invitrogen); in assay [1]; in assay [2]) was at most 10 µM each time.

For `COc1cc(-c2cc(=O)n3ncc(-c4cc(C)n[nH]4)c3[nH]2)ccc1Cl` [Example 69, 5-(4-chloro-3-methoxyphenyl)-3-(3-methyl-1H-pyrazol-5-yl)pyrazolo[1,5-a]pyrimidin-7(4H)-one], the IC50 (at PASK; on PASK (Invitrogen); in assay [1]; in assay [2]) was at most 10 µM throughout.

For `COc1cc(-c2cc(=O)n3ncc(-c4ncco4)c3[nH]2)ccc1Cl` [Example 19, 5-(4-chloro-3-methoxyphenyl)-3-(1,3-oxazol-2-yl)-4H,7H-pyrazolo[1,5-a]pyrimidin-7-one], the IC50 (on PASK; on PASK (Invitrogen); in assay [1]; in assay [2]) was at most 10 µM throughout.

As to `O=c1cc(-c2ccc3c(c2)OCO3)[nH]c2c(-c3ncco3)cnn12` [Example 1, 5-(2H-1,3-benzodioxol-5-yl)-3-(1,3-oxazol-2-yl)-4H,7H-pyrazolo[1,5-a]pyrimidin-7-one], the IC50 on PASK and at PASK (Invitrogen) was at most 10 µM each time.

On to `O=c1cc(-c2ccc3[nH]ncc3c2)[nH]c2c(-c3ncco3)cnn12` [Example 23, 5-(1H-indazol-5-yl)-3-(oxazol-2-yl)pyrazolo[1,5-a]pyrimidin-7(4H)-one], for which the IC50 (on PASK; on PASK (Invitrogen); in assay [1]; in assay [2]) was at most 10 µM throughout.

`Cn1ccc(-c2cnn3c(=O)cc(-c4ccc(Cl)c(OCC(F)(F)F)c4)[nH]c23)n1` [Example 96, 5-(4-chloro-3-(2,2,2-trifluoroethoxy)phenyl)-3-(1-methyl-1H-pyrazol-3-yl)pyrazolo[1,5-a]pyrimidin-7(4H)-one]: the IC50 is at most 10 µM at PASK, at most 10 µM at PASK (Invitrogen), over 10 µM in assay [1] and at most 10 µM in assay [2].

In the case of `Cc1csc(-c2cnn3c(=O)cc(-c4ccc(Cl)cc4)[nH]c23)n1` [Example 58, 5-(4-chlorophenyl)-3-(4-methylthiazol-2-yl)pyrazolo[1,5-a]pyrimidin-7(4H)-one], the IC50 (at PASK; at PASK (Invitrogen); in assay [1]; in assay [2]) was at most 10 µM in each case.

As for `Cc1noc(-c2cnn3c(=O)cc(-c4ccc5c(cnn5C)c4)[nH]c23)n1` [Example 74, 3-(3-methyl-1,2,4-oxadiazol-5-yl)-5-(1-methyl-1H-indazol-5-yl)-4H,7H-pyrazolo[1,5-a]pyrimidin-7-one], the IC50 (at PASK; on PASK (Invitrogen); in assay [1]; in assay [2]) was at most 10 µM throughout.

Take `Cn1ncc2cc(-c3cc(=O)n4ncc(-c5cc[nH]n5)c4[nH]3)ccc21` [Example 71, 5-(1-methyl-1H-indazol-5-yl)-3-(1H-pyrazol-3-yl)-4H,7H-pyrazolo[1,5-a]pyrimidin-7-one]: the IC50 (on PASK; at PASK (Invitrogen); in assay [1]; in assay [2]) was at most 10 µM in each case.

Consider `COc1cc(-c2cc(=O)n3ncc(-c4ncc(C)s4)c3[nH]2)ccc1Cl` [Example 56, 5-(4-chloro-3-methoxyphenyl)-3-(5-methylthiazol-2-yl)pyrazolo[1,5-a]pyrimidin-7(4H)-one], for which the IC50 (on PASK; on PASK (Invitrogen); in assay [1]; in assay [2]) was at most 10 µM each time.

Turning to `CCn1nccc1-c1cnn2c(=O)cc(-c3ccc(Cl)cc3)[nH]c12` [Example 66, 5-(4-chlorophenyl)-3-(1-ethyl-1H-pyrazol-5-yl)pyrazolo[1,5-a]pyrimidin-7(4H)-one], the IC50 (at PASK; on PASK (Invitrogen); in assay [1]; in assay [2]) was at most 10 µM throughout.

For `Cn1ncc2cc(-c3cc(=O)n4ncc(-c5ncco5)c4[nH]3)ccc21` [Example 73, 5-(1-methyl-1H-indazol-5-yl)-3-(oxazol-2-yl)-4H,7H-pyrazolo[1,5-a]pyrimidin-7-one], the IC50 (at PASK; at PASK (Invitrogen); in assay [1]; in assay [2]) was at most 10 µM throughout.

With `CCn1ncc2cc(-c3cc(=O)n4ncc(-c5c(C)cnn5C)c4[nH]3)ccc21` [Example 85, 3-(1,4-dimethyl-1H-pyrazol-5-yl)-5-(1-ethyl-1H-indazol-5-yl)-4H,7H-pyrazolo[1,5-a]pyrimidin-7-one], the IC50 (at PASK; at PASK (Invitrogen); in assay [1]; in assay [2]) was at most 10 µM throughout.

`CCn1nccc1-c1cnn2c(=O)cc(-c3ccc(Cl)c(OCC(F)(F)F)c3)[nH]c12` [Example 94, 5-(4-chloro-3-(2,2,2-trifluoroethoxy)phenyl)-3-(1-ethyl-1H-pyrazol-5-yl)pyrazolo[1,5-a]pyrimidin-7(4H)-one]: the IC50 (on PASK; at PASK (Invitrogen); in assay [1]; in assay [2]) was at most 10 µM in each case.

For the compound `COc1cc(-c2cc(=O)n3ncc(-c4nc(C)co4)c3[nH]2)ccc1Cl` [Example 18, 5-(4-chloro-3-methoxyphenyl)-3-(4-methyl-1,3-oxazol-2-yl)-4H,7H-pyrazolo[1,5-a]pyrimidin-7-one], the IC50 (at PASK; on PASK (Invitrogen); in assay [1]; in assay [2]) was at most 10 µM in each case.

Take `COc1cc(-c2cc(=O)n3ncc(-c4ccn(C)n4)c3[nH]2)ccc1Cl` [Example 54, 5-(4-chloro-3-methoxyphenyl)-3-(1-methyl-1H-pyrazol-3-yl)pyrazolo[1,5-a]pyrimidin-7(4H)-one]: the IC50 (at PASK; on PASK (Invitrogen); in assay [1]; in assay [2]) was at most 10 µM in each case.

For `CCn1ncc2cc(-c3cc(=O)n4ncc(-c5cc(C)n[nH]5)c4[nH]3)ccc21` [Example 68, 5-(1-ethyl-1H-indazol-5-yl)-3-(3-methyl-1H-pyrazol-5-yl)pyrazolo[1,5-a]pyrimidin-7(4H)-one], the IC50 (at PASK; in assay [1]; in assay [2]) was at most 10 µM in each case.
